Measurements published in US20070213291A1, “Therapeutically useful synthetic oligonucleotides” (priority 1999, published 2007).

Experiments:
[1] = system: Jurkat human leukemia T cells; experiment: Inhibition of Jurkat human leukemia T cell proliferation (MTT reduction); format: cell-based; details: 100 μg/ml sequence, 48 h, 2.5×10^5 cells/ml
Outline: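 Read-out is MTT absorbance at 570 nm after 48 h. Sequences of 2 to 45 bases (A, C, G, T) tested at 100 μg/ml against untreated control, with 2.5×10^5 Jurkat cells/ml held at 37° C under 5% CO2.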

[2] = system: THP-1 human acute monocytic leukemia cells; experiment: Cytokine production by THP-1 cells (ELISA); format: cell-based; details: THP-1, 1×10^6 cells, 100 μg/ml, 48 h; for ↑ IL-12 (fold increase treated vs control cells): p70 complex and free p40
Outline: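 Read-out is fold increase in supernatant cytokine versus control cells, measured by ELISA (IL-12 ELISA counts p70 complex plus free p40). Unless noted, sequences were tested at 100 μg/ml on 1×10^6 cells, incubated 48 h, 37° C, 5% CO2.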

[3] = system: MCF-7 human breast cancer cells; experiment: Inhibition of MCF-7 cell proliferation (MTT); format: cell-based; details: 100 μg/ml, 48 h, 5×10^5 cells/ml
Description: (§1) Cells were seeded in 6 (1 ml/well), 24 (0.5 ml/well) or 96 (0.1 ml/well) well flat-bottom microplates and were maintained at 37° C. in a 5% CO2 atmosphere. Unless stated otherwise, 2.5×10^5 cells/ml were incubated with 0 μg/ml (control) and 100 μg/ml (treated) of 2 to 45 base sequences containing A, C, G and T for 48 h.
(§2) Cell proliferation was measured using dimethylthiazol-diphenyl-tetrazolium (MTT) reduction (Mosman et al. J. Immunol. Methods 65:55, 1983). MTT was measured at a wavelength of 570 nm using a multiplate spectrophotometer reader (ELX800, Bio-TEK Instruments Inc., Winooski, Vt.).
MCF-7 human breast cancer cells are a caspase 3 negative, estrogen-dependent human solid tumor model. MCF-7 cells (5×10^5 cells/ml) were incubated with 3 and 6 base GT sequences (Table 7).

[4] = system: LNCaP human prostate cancer cells; experiment: Inhibition of LNCaP cell proliferation (MTT); format: cell-based; details: 100 μg/ml, 48 h, 5×10^5 cells/ml
Description: as §1, §2
LNCaP prostate cancer cells are a TGF-beta 1 receptor negative, […], metastatic human solid tumor model. LNCaP cells (5×10^5 cells/ml) were incubated with 6 base GT sequences (Table 9).

caspase 3 and caspase 7 = experiment: Caspase 3 and caspase 7 activation by peptide-sequence constructs in Jurkat cells; format: cell-based, human; details: 72 h, present-tense example
Description: Reactive carboxylate and reactive amine groups are deprotected subsequent to conjugation,
To determine caspase activation, control and treated cells are washed, fixed, permeabilized and incubated with an FITC-conjugated antibody that recognizes the active form of the caspase (Pharmingen, San Diego, Calif.) using the conditions recommended by the manufacturer. Fluorescence associated with active caspase 3 is analyzed by flow cytometry on a FACSCALIBUR using the program CellQUEST (Becton Dickinson). Alternatively, caspase activation is determined colorimetrically using an assay based on the cleavage of a caspase-specific peptide conjugated to the color reporter molecule p-nitroanilide, which can be quantitated spectrophotometrically at a wavelength of 405 nm.
Jurkat human leukemia T cells are incubated for 72 h with NH2—YVAD-CO-GG(GT)GG, NH2-DEVD-CO-GG(GT)GG, NH2—EGD-COO-GG(GT)GG, NH2-YVAD-CO-[…], NH2-DVED-CO-[…] and NH2—IEGD-CO-[…]. Caspase 3 and caspase 7 activation are determined.

[5] = system: PC-3 human prostate cancer cells; experiment: Inhibition of PC-3 cell proliferation (MTT); format: cell-based; details: 100 μg/ml, 48 h, 5×10^5 cells/ml
Description: as §1, §2
PC-3 prostate cancer cells are a p53 mutated, androgen-independent human solid tumor model. PC-3 cells (5×10^5 cells/ml) were incubated with 3 and 6 base GT sequences (Table 8).

[6] = system: Jurkat human leukemia T cells; experiment: NuMA release into supernatant (ELISA); format: cell-based; details: Jurkat, 50 μM sequence
Description: (§3) The redistribution of phosphatidylserine in the plasma membrane during apoptosis was measured by flow cytometry using FITC-conjugated annexin V (BD Pharmingen, San Diego, Calif.). NuMA release into the supernatant was determined using a commercial ELISA kit (Oncogen/Calbiochem, Cambridge, Mass.).
Jurkat human leukemia T cells were incubated with 50 μM of 3, 4, 5, 6 and 7 GT base sequences, a 5 base ACGT sequence, 6 base AG, GG, AGT and CGT sequences and a 7 base GG sequence.
Jurkat human leukemia T cells (1×10^6/ml) were incubated with 6 and 27 GT base sequences (Table 32). NuMA was determined as in Example 23.
Jurkat human cell leukemia T cells were incubated for 24 h with 6 base GT SEQ ID NO:25, complementary 6 base AC SEQ ID NO:79, and 6 base GT SEQ ID NO:25+6 base AC SEQ ID NO:79. GT SEQ ID NO:25 and AC SEQ ID NO:79 were hybridized by mixing the sequences (1:1) and heating for 10 minutes at 65° C. As controls, GT SEQ ID NO:25 and AC SEQ ID NO:79 were heated for 10 minutes at 65° C. (Table 33). Apoptosis was evaluated as in Example 23.

[7] = system: Jurkat human leukemia T cells; experiment: Apoptosis by phosphatidylserine/annexin V-FITC flow cytometry; format: cell-based; details: 50 μM sequence
Description: as §3
Jurkat human leukemia T cells were incubated with 50 μM of 3, 4, 5, 6 and 7 GT base sequences, a 5 base ACGT sequence, 6 base AG, GG, AGT and CGT sequences and a 7 base GG sequence. […]
Jurkat human leukemia T cells were incubated with GT-rich or AC-rich sequences derived from the murA gene of Mycobacterium phlei (GenBank: Accession Number X99776). Inhibition of proliferation was measured by the reduction of MTT as in Example 3, cell cycle arrest was detected by flow cytometry using propidium iodide as in Example 21 and apoptosis was evaluated by flow cytometry using annexin-V-FITC as in Example 23.

[8] = system: D-17 canine osteosarcoma cells; experiment: Inhibition of D-17 cell proliferation (MTT); format: cell-based; details: 100 μg/ml, 48 h, 5×10^5 cells/ml
Description: as §1, §2
(§4) D-17 canine osteosarcoma cells and CF-51 canine mammary gland cancer cells are solid tumor models. D-17 canine osteosarcoma cells (5×10^5 cells/ml) (Table 20) and CF-51 canine mammary gland cancer cells (5×10^5 cells/ml) (Table 21) were incubated with 6, 9, 17, 27 and 33 base GT-sequences and with a 15 base ACG sequence.

[9] = system: CF-51 canine mammary gland cancer cells; experiment: Inhibition of CF-51 cell proliferation (MTT); format: cell-based; details: 100 μg/ml, 48 h, 5×10^5 cells/ml
Description: as §1, §2, §4

Row | Substance | % INHIBITION of Jurkat human leukemia T cell proliferation [1] | ↑ IL-12 (fold increase treated vs control cells) [2] | % INHIBITION of MCF-7 human breast cancer cell proliferation [3] | % INHIBITION of LNCaP human prostate cancer cell proliferation [4] | processing of inactive caspase 3 and caspase 7 to active forms (caspase 3 and caspase 7) | further results
1 | GGTGGG [SEQ ID NO:24 phosphorothioate] | 6% | −0.1x | 12% | −17% |  | 
2 | GTGTGT [SEQ ID NO:10 phosphorothioate] | 0% | −0.2x | 12% | −20% |  | 
3 | NH2-DEVD-CO-GG(GT)GG [NH2-DEVD-CO-GT] |  |  |  |  | induce processing of inactive caspase 3 to active caspase 3 and of inactive caspase 7 to active caspase 7 | 
4 | NH2-DVED-CO-AACCACAAGCCCAAC [NH2-DVED-CO-ACG] |  |  |  |  | do not induce processing of inactive pro-caspase 3 to active caspase 3 or of inactive caspase 7 to active caspase 7 | 
5 | NH2-YVAD-CO-AACCACAAGCCCAAC [NH2—YVAD-CO-ACG] |  |  |  |  | do not induce processing of inactive pro-caspase 3 to active caspase 3 or of inactive caspase 7 to active caspase 7 | 
6 | NH2—EGD-COO-GG(GT)GG [NH2—IEGD-COO-GT] |  |  |  |  | induce processing of inactive caspase 3 to active caspase 3 and of inactive caspase 7 to active caspase 7 | 
7 | NH2—IEGD-CO-AACCACAAGCCCAAC [NH2—IEGD-CO-ACG] |  |  |  |  | do not induce processing of inactive pro-caspase 3 to active caspase 3 or of inactive caspase 7 to active caspase 7 | 
8 | NH2—YVAD-CO-GG(GT)GG [NH2—YVAD-CO-GT] |  |  |  |  | induce processing of inactive caspase 3 to active caspase 3 and of inactive caspase 7 to active caspase 7 | 
9 | TGT (chemistry not given here) [SEQ ID NO:7] | 22% |  | −6% |  |  | % INHIBITION of PC-3 human prostate cancer cell proliferation [5]: 8%; % NuMA released (treated vs untreated cells) [6]: 35%; ↑ IL-6 (fold increase treated vs control cells) [2]: 2.7x; % of cells in apoptosis (positive for PS/A-V staining) [7]: 10%
10 | TGTGTG [SEQ ID NO:9 phosphorothioate] (phosphorothioate backbone) | −17% | −0.1x | 6% | −16% |  | 
11 | TGTGTGTGTGTGTGTGTG (unmodified DNA) [SEQ ID NO:17] | 56% |  |  |  |  | % INHIBITION of D-17 canine osteosarcoma cell proliferation [8]: 8%; ↑ IL-6 (fold increase treated vs control cells) [2]: 2.2x; % INHIBITION of CF-51 canine mammary gland cancer cell proliferation [9]: 8%
12 | TTGTTT [SEQ ID NO:26 phosphorothioate] | 0% | −0.1x | 6% | −1% |  | 
13 | TTTGTT [SEQ ID NO:23 phosphorothioate] (phosphorothioate backbone) | 4% | 0.1x | 8% | −11% |  | 
